According to patent US20220081435A1, “ANDROGEN RECEPTOR PROTEIN DEGRADERS” (THE REGENTS OF THE UNIVERSITY OF MICHIGAN, priority 2019, published 2022):

Key:
VHL-ElonginBC complex = biological target: T1, VHL-ElonginBC complex (Homo sapiens, UniProt P40337); experiment: Fluorescence-polarization competitive binding assay for VHL protein
T1 construct: His-TEV (cleaved yes); made in house; host or cells: E. coli BL21(DE3)
Procedure: Cloning and Purification of VHL-ElonginBC complex. […] The cells were induced overnight with 0.4 mM IPTG at 24° C. […] The cell suspension was lysed by sonication and debris removed via centrifugation. […] The protein complex was eluted in 20 mM Tris-HCl pH 7.0, 200 mM NaCl and 300 mM Imidazole, dialyzed into 20 mM Tris-HCl pH 7.0, 150 mM NaCl, and 0.01% bME and incubated with TEV protease overnight at 4° C. […] The flow through containing the VHL complex was diluted to 75 mM NaCl and applied to a HiTrap Q column (GE Healthcare). The sample was eluted with a salt gradient (0.075-1 M NaCl), concentrated and further purified on a Superdex S75 column (GE Healthcare) pre-equilibrated with 20 mM Bis-Tris 7.0, 150 mM NaCl and 1 mM DTT. Samples were aliquoted and stored at −80° C.
The IC50 and Ki values of compounds were determined in competitive binding experiments. […] IC50 values were determined by nonlinear regression fitting of the competition curves. Ki values of competitive inhibitors were obtained directly by nonlinear regression fitting, based upon the KD values of the probe and concentrations of the protein and probe in the competitive assays. All the FP competitive experiments were performed in duplicate in three independent experiments.

[1] = tested on: AR-amplified prostate cancer cells; conditions: cited from earlier work
AR protein = biological target: T2, AR protein (Homo sapiens, UniProt P10275, T878A); experiment: AR protein degradation in LNCaP cells (Western blotting); format: cell-based; conditions: treatment time 6 h, average of three independent experiments; for Dmax at 0.1 µM / Dmax at 1 µM / Dmax at 10 µM: read-out: % AR protein degradation in LNCaP Cells
T2 construct: The percent AR protein degradation induced by these compounds at various concentrations in LNCaP cells; host or cells: LNCaP
T2 sequence (P10275 1-920 T878A): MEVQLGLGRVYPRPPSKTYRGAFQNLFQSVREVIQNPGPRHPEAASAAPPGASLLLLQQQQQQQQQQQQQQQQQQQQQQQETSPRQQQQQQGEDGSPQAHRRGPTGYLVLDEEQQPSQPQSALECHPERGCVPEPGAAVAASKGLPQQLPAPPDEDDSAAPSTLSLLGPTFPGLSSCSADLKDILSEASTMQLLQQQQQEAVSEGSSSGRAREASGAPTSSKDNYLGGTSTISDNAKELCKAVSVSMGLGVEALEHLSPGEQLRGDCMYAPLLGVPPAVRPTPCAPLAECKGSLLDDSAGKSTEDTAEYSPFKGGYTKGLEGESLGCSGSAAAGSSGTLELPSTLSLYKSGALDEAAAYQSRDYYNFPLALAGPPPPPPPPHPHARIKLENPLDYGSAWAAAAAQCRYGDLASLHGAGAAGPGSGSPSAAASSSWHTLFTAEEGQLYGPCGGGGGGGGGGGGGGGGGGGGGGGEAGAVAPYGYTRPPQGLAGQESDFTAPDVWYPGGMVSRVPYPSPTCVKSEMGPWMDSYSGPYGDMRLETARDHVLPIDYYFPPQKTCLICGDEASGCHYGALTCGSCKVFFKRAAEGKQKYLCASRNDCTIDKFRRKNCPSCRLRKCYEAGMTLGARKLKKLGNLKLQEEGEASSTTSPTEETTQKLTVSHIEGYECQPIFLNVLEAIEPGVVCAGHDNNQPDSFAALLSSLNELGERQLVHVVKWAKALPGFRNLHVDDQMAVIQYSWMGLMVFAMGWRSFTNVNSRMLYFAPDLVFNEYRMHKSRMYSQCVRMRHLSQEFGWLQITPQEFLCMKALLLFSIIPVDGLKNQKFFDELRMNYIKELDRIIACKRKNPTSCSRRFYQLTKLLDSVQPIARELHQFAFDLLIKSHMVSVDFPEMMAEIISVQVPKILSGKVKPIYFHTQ
In short: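 LNCaP cells were cultured with 10% FBS at 37° C and lysed in RIPA buffer after treatment. AR levels were measured by Western blot. Degradation percentage was quantified by densitometry as the background-corrected AR band relative to the loading control.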

Row | Compound | Dmax at 0.1 µM (AR protein; LNCaP, 0.1 μM) | Dmax at 1 µM (AR protein; LNCaP, 1 μM) | Dmax at 10 µM (AR protein; LNCaP, 10 μM) | also measured
1 | Cc1cc([C@H](C(=O)N2C[C@H](O)C[C@H]2C(=O)N[C@@H](CC(=O)NCCOCCOCCOCCNC(=O)c2ccc3c(c2)C(=O)OC32c3ccc(O)cc3Oc3cc(O)ccc32)c2ccc(-c3scnc3C)cc2)C(C)C)on1 [HXC78, (2S,4R)—N—((S)-1-(3′,6′-dihydroxy-3-oxo-3H-spiro[isobenzofuran-1,9′-xanthen]-5-yl)-17-(4-(4-methylthiazol-5-yl)phenyl)-1,15-dioxo-5,8,11-trioxa-2,14-diazaheptadecan-17-yl)-4-hydroxy-1-((R)-3-methyl-2-(3-methylisoxazol-5-yl)butanoyl)pyrrolidine-2-carboxamide, reference compound] |  |  |  | Kd (VHL-ElonginBC complex; tracer binding to VHL complex (VHL, Elongin B, Elongin C)): 2.4 nM
2 | Cc1ncsc1-c1ccc(CNC(=O)[C@@H]2C[C@@H](O)CN2C(=O)[C@@H](NC(=O)COCCCCOc2ccc(-c3ccc(N4C(=S)N(c5ccc(C#N)c(C(F)(F)F)c5)C(=O)C4(C)C)cc3)cc2)C(C)(C)C)cc1 [ARCC-4, (4R)-1-((S)-2-(2-(4-((4′-(3-(4-cyano-3-(trifluoromethyl)phenyl)-5,5-dimethyl-4-oxo-2-thioxoimidazolidin-1-yl)-[1,1′-biphenyl]-4-yl)oxy)butoxy)acetamido)-3,3-dimethylbutanoyl)-4-hydroxy-N-(4-(4-methylthiazol-5-yl)benzyl)pyrrolidine-2-carboxamide] |  |  |  | Inducing apoptosis and inhibiting proliferation, compared with enzalutamide [1]: more potent and effective than enzalutamide
3 | CC(=O)N[C@H](C(=O)N1C[C@H](O)C[C@H]1C(=O)N[C@@H](C)c1ccc(-c2scnc2C)cc1)C(C)(C)C [VHL-b, (2S,4R)-1-((S)-2-acetamido-3,3-dimethylbutanoyl)-4-hydroxy-N—((S)-1-(4-(4-methylthiazol-5-yl)phenyl)ethyl)pyrrolidine-2-carboxamide] |  |  |  | IC50 (VHL-ElonginBC complex; FP competition, VHL protein and fluorescent probe both 5 nM): 164 ± 13 nM
4 | Cc1ncsc1-c1ccc(CNC(=O)C2C[C@@H](O)CN2C(=O)[C@@H](NC(=O)CCNC(=O)c2ccc(N3C(=S)N(c4ccc(C#N)c(C(F)(F)F)c4)C(=O)C3(C)C)cc2F)C(C)(C)C)cc1 (stereo partly drawn) [Compound 8, (4R)-1-((S)-2-(3-(4-(3-(4-Cyano-3-(trifluoromethyl)phenyl)-5,5-dimethyl-4-oxo-2-thioxoimidazolidin-1-yl)-2-fluorobenzamido)propanamido)-3,3-dimethylbutanoyl)-4-hydroxy-N-(4-(4-methylthiazol-5-yl)benzyl)pyrrolidine-2-carboxamide] | 26% | 35% | 28% | 
5 | Cc1ncsc1-c1ccc(CNC(=O)C2C[C@@H](O)CN2C(=O)[C@@H](NC(=O)CCCCCCCCCCCNC(=O)c2ccc(N3C(=S)N(c4ccc(C#N)c(C(F)(F)F)c4)C(=O)C3(C)C)cc2F)C(C)(C)C)cc1 (stereo partly drawn) [Compound 17, (4R)-1-((S)-2-(12-(4-(3-(4-Cyano-3-(trifluoromethyl)phenyl)-5,5-dimethyl-4-oxo-2-thioxoimidazolidin-1-yl)-2-fluorobenzamido)dodecanamido)-3,3-dimethylbutanoyl)-4-hydroxy-N-(4-(4-methylthiazol-5-yl)benzyl)pyrrolidine-2-carboxamide] | 30% | 69% | 75% | 
6 | Cc1cc([C@H](C(=O)N2C[C@H](O)C[C@H]2C(=O)N[C@@H](CC(=O)NCCCCCCCCCNC(=O)c2ccc(C(=O)N[C@H]3C(C)(C)[C@H](Oc4ccc(C#N)c(Cl)c4)C3(C)C)cc2)c2ccc(-c3scnc3C)cc2)C(C)C)on1 [Compound 39, N1-((1r,3r)-3-(3-Chloro-4-cyanophenoxy)-2,2,4,4-tetramethylcyclobutyl)-N4-(9-((S)-3-((2S,4R)-4-hydroxy-1-((R)-3-methyl-2-(3-methylisoxazol-5-yl)butanoyl)pyrrolidine-2-carboxamido)-3-(4-(4-methylthiazol-5-yl)phenyl)propanamido)nonyl)terephthalamide] | 91% | 96% |  | Dmax at 0.01 µM (AR protein; LNCaP, 0.01 μM): 43%
7 | Cc1ncsc1-c1ccc([C@@H](CC(=O)N2CCC(N3CCC(C#Cc4ccc(C(=O)N[C@H]5C(C)(C)[C@H](Oc6ccc(C#N)c(Cl)c6)C5(C)C)cc4)CC3)CC2)NC(=O)[C@@H]2C[C@@H](O)CN2C(=O)[C@@H](NC(=O)C2(F)CC2)C(C)(C)C)cc1 [Compound 37, (2S,4R)—N—((R)-3-(4-((4-(((1r,3r)-3-(3-Chloro-4-cyanophenoxy)-2,2,4,4-tetramethyl-cyclobutyl)carbamoyl)phenyl)ethynyl)-[1,4′-bipiperidin]-1′-yl)-1-(4-(4-methylthiazol-5-yl)phenyl)-3-oxopropyl)-1-((S)-2-(1-fluorocyclopropane-1-carboxamido)-3,3-dimethyl-butanoyl)-4-hydroxypyrrolidine-2-carboxamide] |  |  |  | % AR protein degradation in LNCaP Cells (AR protein; 0.1 μM): <5%; % AR protein degradation in LNCaP Cells (AR protein; 1 μM): <5%; % AR protein degradation in LNCaP Cells (AR protein; 10 μM): <5%
8 | Cc1ncsc1-c1ccc(CNC(=O)C2C[C@@H](O)CN2C(=O)[C@@H](NC(=O)CCCN2CCN(c3ccc(C#Cc4ccc(N5C(=S)N(c6ccc(C#N)c(C(F)(F)F)c6)C(=O)C5(C)C)cc4)cn3)CC2)C(C)(C)C)cc1 (stereo partly drawn) [Compound 20, (4R)-1-((S)-2-(4-(4-(5-((4-(3-(4-Cyano-3-(trifluoromethyl)phenyl)-5,5-dimethyl-4-oxo-2-thioxoimidazolidin-1-yl)phenyl)ethynyl)pyridin-2-yl)piperazin-1-yl)butanamido)-3,3-dimethylbutanoyl)-4-hydroxy-N-(4-(4-methylthiazol-5-yl)benzyl)pyrrolidine-2-carboxamide] | 50% | 80% | 80% | 
